Measured values published in BindingDB's records for patent US20250066370 (Deutsches Krebsforschungszentrum, 2025).

Key:
[1] = biological target: Cyclin-T1/Cyclin-dependent kinase 9 (Homo sapiens, UniProt P50750); assay: CDK9/CycT1 High ATP Kinase Assay
Method: For the assay 50 nanoL of a 100 fold concentrated solution of the test compound in DMSO was pipetted into either a black low volume 384 well microtiter plate or a black 1536 well microtiter plate (both Greiner Bio-One, Frickenhausen, Germany), 2 microL of a solution of CDK9/CycT1 in aqueous assay buffer [50 millimol/L Tris/HCl PH 8.0, 10 millimol/L MgCl2, 1.0 millimol/L dithiothreitol, 0.1 millimol/L sodium ortho-vanadate, 0.01% (v/v) Nonidet-P40 (Sigma)] were added and the mixture was incubated for 15 min at 22° C. to allow pre-binding of the test compounds to the enzyme before the start of the kinase reaction. Then the kinase reaction was started by the addition of 3 microL of a solution of adenosine-tri-phosphate (ATP, 3.3 millimol/L=>final conc. in the 5 microL assay volume is 2 millimol/L) and substrate (1.25 micromol/L=>final conc. in the 5 microL assay volume is 0.75 micromol/L) in assay buffer and the resulting mixture was incubated for a reaction time of 25 min at 22° C. The concentration of CDK9/CycT1 was adjusted depending of the activity of the enzyme lot and was chosen appropriate to have the assay in the linear range, typical concentrations were in the range of 0.5 microg/ml. […] Subsequently the amount of phosphorylated substrate was evaluated by measurement of the resonance energy transfer from the Eu-chelate to the streptavidine-XL. Therefore, the fluorescence emissions at 620 nm and 665 nm after excitation at 350 nm was measured in a TR-FRET reader, e.g. a Pherastar (BMG Labtechnologies, Offenburg, Germany) or a Viewlux (Perkin-Elmer).

[2] = biological target: Cyclin-K/Cyclin-dependent kinase 12 (Human, UniProt Q9NYV4); assay: CDK12/CycK High ATP Kinase Assay
Text: For the assay 50 nanoL of a 100 fold concentrated solution of the test compound in DMSO was pipetted into either a black low volume 384 well microtiter plate or a black 1536 well microtiter plate (both Greiner Bio-One, Frickenhausen, Germany), 2 microL of a solution of CDK12/CycK in aqueous assay buffer [25 millimol/L HEPES pH 7.5, 20 millimol/L MgCl2, 5 millimol/L β-glycerophosphate, 2 millimol/L EGTA, 1.0 millimol/L dithiothreitol, 0.01% (v/v) Nonidet-P40 (Sigma), 0.01% (w/v) bovine serum albumin] were added and the mixture was incubated for 15 min at 22° C. to allow pre-binding of the test compounds to the enzyme before the start of the kinase reaction. Then the kinase reaction was started by the addition of 3 microL of a solution ATP (3.33 millimol/L=>final conc. in the 5 microL assay volume is 2 millimol/L) and substrate (1.67 micromol/L=>final conc. in the 5 microL assay volume is 1 micromol/L) in assay buffer and the resulting mixture was incubated for a reaction time of 60 min at 22° C. The concentration of CDK12/CycK was adjusted depending of the activity of the enzyme lot and was chosen appropriate to have the assay in the linear range, typical concentrations were about 0.75 nanomol/L. The reaction was stopped by the addition of 3 microL of a solution of TR-FRET detection reagents (125 nanomol/L streptavidine-XL665 [Cisbio Bioassays, Codolet, France] and 0.67 nanomol/L anti-Phospho-c-Myc (Ser 62) (E1J4K)-antibody from Cell Signalling [#13748] and 2 nanomol/L LANCE EU-W1024 labeled anti-rabbit IgG antibody [Perkin-Elmer, product no. 0083]) in an aqueous EDTA-solution (133 millimol/L EDTA, 0.27% (w/v) bovine serum albumin in 66.7 millimol/L HEPES pH 7.5).The resulting mixture was incubated 1 h at 22° C. to allow the formation of complex between the phosphorylated biotinylated peptide and the detection reagents. Subsequently the amount of phosphorylated substrate was evaluated by measurement of the resonance energy transfer from the Eu-chelate to the streptavidine-XL. Therefore, the fluorescence emissions at 620 nm and 665 nm after excitation at 350 nm was measured in a TR-FRET reader, e.g. a Pherastar FS (BMG Labtechnologies, Offenburg, Germany) or a Viewlux (Perkin-Elmer).

[3] = biological target: Cyclin-dependent kinase 2/G1/S-specific cyclin-E1 (Homo sapiens, UniProt P24941); assay: CDK2/CycE Kinase Assay
Method: For the assay 50 nanoL of a 100 fold concentrated solution of the test compound in DMSO was pipetted into a black low volume 384 well microtiter plate or a black 1536 well microtiter plate (both Greiner Bio-One, Frickenhausen, Germany), 2 microL of a solution of CDK2/CycE in aqueous assay buffer [50 millimol/L Tris/HCl PH 8.0, 10 millimol/L MgCl2, 1.0 millimol/L dithiothreitol, 0.1 millimol/L sodium ortho-vanadate, 0.01% (v/v) Nonidet-P40 (Sigma)] were added and the mixture was incubated for 15 min at 22° C. to allow pre-binding of the test compounds to the enzyme before the start of the kinase reaction. Then the kinase reaction was started by the addition of 3 microL of a solution of adenosine-tri-phosphate (ATP, 3.33 millimol/L=>final conc. in the 5 microL assay volume is 2 millimol/L) and substrate (1.25 micromol/L=>final conc. in the 5 microL assay volume is 0.75 micromol/L) in assay buffer and the resulting mixture was incubated for a reaction time of 25 min at 22° C. The concentration of CDK2/CycE was adjusted depending of the activity of the enzyme lot and was chosen appropriate to have the assay in the linear range, typical concentrations were in the range of 10 ng/ml. The reaction was stopped by the addition of 3 microL of a solution of TR-FRET detection reagents (0.333 micromol/L streptavidine-XL665 [Cisbio Bioassays, Codolet, France] and 1.67 nanomol/L anti-RB (pSer807/pSer811)-antibody from BD Pharmingen [#558389] and 2 nanomol/L LANCE EU-W1024 labeled anti-mouse IgG antibody [Perkin-Elmer, product no. AD0077, as an alternative a Terbium-cryptate-labeled anti-mouse IgG antibody from Cisbio Bioassays can be used]) in an aqueous EDTA-solution (167 millimol/L EDTA, 0.2% (w/v) bovine serum albumin in 100 millimol/L HEPES pH 7.5).The resulting mixture was incubated 1 h at 22° C. to allow the formation of complex between the phosphorylated biotinylated peptide and the detection reagents. Subsequently the amount of phosphorylated substrate was evaluated by measurement of the resonance energy transfer from the Eu-chelate to the streptavidine-XL. Therefore, the fluorescence emissions at 620 nm and 665 nm after excitation at 350 nm was measured in a TR-FRET reader, e.g. a Pherastar (BMG Labtechnologies, Offenburg, Germany) or a Viewlux (Perkin-Elmer).

Sequence of Cyclin-K/Cyclin-dependent kinase 12 (O75909 whole entry): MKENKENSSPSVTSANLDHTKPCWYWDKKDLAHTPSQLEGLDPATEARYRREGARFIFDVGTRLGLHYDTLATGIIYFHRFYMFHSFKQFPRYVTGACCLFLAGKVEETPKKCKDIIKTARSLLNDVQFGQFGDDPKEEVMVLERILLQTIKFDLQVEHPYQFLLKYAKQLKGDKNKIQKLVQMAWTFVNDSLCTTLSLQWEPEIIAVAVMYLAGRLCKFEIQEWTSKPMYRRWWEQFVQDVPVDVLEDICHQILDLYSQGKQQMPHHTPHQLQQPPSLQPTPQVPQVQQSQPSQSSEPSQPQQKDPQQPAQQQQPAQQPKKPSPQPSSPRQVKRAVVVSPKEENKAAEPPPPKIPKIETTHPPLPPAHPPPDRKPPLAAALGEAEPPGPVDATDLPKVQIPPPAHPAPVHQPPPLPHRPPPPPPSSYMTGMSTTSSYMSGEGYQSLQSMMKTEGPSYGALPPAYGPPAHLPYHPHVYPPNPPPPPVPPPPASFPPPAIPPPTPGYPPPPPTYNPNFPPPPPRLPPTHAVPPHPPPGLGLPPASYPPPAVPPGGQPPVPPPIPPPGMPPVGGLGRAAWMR
Sequence of Cyclin-K/Cyclin-dependent kinase 12 (Q9NYV4 whole entry): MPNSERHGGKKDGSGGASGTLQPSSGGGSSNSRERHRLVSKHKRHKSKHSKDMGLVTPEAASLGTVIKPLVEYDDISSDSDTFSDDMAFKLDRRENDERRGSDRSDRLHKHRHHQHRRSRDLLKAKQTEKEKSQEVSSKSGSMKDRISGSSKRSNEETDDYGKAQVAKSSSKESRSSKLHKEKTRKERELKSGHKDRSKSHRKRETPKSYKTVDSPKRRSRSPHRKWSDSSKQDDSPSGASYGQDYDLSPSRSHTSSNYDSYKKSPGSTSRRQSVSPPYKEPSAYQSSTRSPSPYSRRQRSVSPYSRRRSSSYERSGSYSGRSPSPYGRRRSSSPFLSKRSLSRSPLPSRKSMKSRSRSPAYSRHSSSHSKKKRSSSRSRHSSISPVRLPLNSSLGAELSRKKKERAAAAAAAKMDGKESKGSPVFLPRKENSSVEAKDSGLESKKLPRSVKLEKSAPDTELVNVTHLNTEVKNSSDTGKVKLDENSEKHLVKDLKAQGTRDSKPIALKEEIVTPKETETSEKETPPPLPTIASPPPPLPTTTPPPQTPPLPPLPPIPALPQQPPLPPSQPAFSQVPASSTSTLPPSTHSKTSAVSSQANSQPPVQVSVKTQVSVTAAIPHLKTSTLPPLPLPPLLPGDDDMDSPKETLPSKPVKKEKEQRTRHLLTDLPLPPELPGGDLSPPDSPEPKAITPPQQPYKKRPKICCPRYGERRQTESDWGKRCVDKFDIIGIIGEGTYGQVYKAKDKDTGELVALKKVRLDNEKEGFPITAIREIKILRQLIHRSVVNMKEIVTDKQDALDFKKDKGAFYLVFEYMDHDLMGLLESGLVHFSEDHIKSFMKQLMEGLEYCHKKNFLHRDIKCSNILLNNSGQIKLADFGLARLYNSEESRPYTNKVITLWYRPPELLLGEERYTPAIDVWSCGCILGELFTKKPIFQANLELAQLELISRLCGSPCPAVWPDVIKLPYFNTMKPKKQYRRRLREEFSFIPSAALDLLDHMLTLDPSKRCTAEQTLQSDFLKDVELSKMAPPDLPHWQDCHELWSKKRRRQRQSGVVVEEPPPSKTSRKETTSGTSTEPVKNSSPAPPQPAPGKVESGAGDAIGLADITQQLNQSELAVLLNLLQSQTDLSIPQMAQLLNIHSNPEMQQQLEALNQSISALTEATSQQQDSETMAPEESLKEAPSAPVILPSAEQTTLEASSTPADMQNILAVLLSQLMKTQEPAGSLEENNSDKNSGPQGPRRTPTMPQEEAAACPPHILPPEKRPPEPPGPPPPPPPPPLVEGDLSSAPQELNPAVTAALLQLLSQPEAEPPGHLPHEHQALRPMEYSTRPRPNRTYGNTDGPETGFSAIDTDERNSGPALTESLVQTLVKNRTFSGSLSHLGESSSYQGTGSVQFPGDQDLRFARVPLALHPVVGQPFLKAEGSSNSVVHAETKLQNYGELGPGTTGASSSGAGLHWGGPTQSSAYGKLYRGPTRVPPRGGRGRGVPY
Sequence of Cyclin-T1/Cyclin-dependent kinase 9 (O60563 whole entry): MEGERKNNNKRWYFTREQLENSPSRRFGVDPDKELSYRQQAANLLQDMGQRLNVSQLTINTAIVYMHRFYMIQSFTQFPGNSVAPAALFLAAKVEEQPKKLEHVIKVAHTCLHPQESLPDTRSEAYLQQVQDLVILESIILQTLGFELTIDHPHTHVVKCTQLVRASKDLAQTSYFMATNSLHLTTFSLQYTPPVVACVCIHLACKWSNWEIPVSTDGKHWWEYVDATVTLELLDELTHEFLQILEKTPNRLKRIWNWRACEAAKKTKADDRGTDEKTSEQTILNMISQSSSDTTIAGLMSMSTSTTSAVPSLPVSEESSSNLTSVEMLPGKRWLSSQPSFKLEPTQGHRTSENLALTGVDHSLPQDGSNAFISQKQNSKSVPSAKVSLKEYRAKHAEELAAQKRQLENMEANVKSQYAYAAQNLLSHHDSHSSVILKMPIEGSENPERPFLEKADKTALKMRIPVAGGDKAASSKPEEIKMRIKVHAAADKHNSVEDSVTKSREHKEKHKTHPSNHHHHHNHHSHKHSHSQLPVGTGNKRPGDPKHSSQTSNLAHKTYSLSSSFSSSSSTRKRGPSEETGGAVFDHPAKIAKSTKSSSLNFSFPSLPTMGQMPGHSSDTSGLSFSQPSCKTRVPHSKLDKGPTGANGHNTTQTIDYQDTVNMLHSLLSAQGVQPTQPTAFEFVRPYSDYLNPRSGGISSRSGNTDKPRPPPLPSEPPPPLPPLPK
Sequence of Cyclin-T1/Cyclin-dependent kinase 9 (P50750 whole entry): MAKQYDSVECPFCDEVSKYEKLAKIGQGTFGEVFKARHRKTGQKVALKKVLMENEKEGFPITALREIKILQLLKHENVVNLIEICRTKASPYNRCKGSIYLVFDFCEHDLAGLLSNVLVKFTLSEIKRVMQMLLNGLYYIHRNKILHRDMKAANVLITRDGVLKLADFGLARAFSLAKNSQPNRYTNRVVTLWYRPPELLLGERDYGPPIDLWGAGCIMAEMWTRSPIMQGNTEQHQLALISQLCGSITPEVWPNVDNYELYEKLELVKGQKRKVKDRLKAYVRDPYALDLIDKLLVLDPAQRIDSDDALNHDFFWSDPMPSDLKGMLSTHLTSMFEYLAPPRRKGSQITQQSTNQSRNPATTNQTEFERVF

`COc1ccc(-c2nnc(CNc3nc(N4CCOCC4)nn4c(C(F)(F)F)cnc34)[nH]2)cn1` [US20250066370, Example 18] gave an IC50 [1] of 340 nM, an IC50 [2] of 41.6 nM and an IC50 [3] of over 5710 nM.

In the case of `FC(F)(F)Oc1ccc(-c2nnc(CNc3nc(N4CCOCC4)nc4c(C(F)(F)F)cnn34)[nH]2)cn1` [US20250066370, Example 17], the IC50 [2] is reported as 5.96 nM and the IC50 [3] is reported as 6720 nM.

Compound `FC(F)(F)c1ccc(-c2cnc(CNc3nc(N4CCOCC4)nc4c(C(F)(F)F)cnn34)[nH]2)cn1` [US20250066370, Example 24] has an IC50 [1] of 3560 nM, an IC50 [2] of 15.1 nM and an IC50 [3] of 7820 nM.

`COc1ccc(-c2cnc(CNc3nc(N4CCOCC4)nn4c(C(F)(F)F)cnc34)[nH]2)cc1` [US20250066370, Example 13] showed an IC50 [1] of 2780 nM, an IC50 [2] of 12.3 nM and an IC50 [3] of 16300 nM.

Work on `FC(F)(F)c1ccc(-c2nnc(CNc3nc(N4CCOCC4)nc4c(C(F)(F)F)cnn34)[nH]2)cn1` [US20250066370, Example 16] yielded an IC50 [2] of 79.1 nM and an IC50 [3] of 4050 nM.
